Data from PubChem BioAssay (NCI).
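Each compound was tested at five concentrations against cells in 96-well plates for 48 hours. TGI: concentration producing complete growth inhibition.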

What was measured:
Assay in all cases: NCI anticancer screen, dose series, 48 h
NCI-H226 lung = tested on: NCI-H226 lung
NCI-H460 lung = tested on: NCI-H460 lung
OVCAR-8 ovarian = tested on: OVCAR-8 ovarian
IGROV1 ovarian = tested on: IGROV1 ovarian
MALME-3M melanoma = tested on: MALME-3M melanoma
SK-MEL-28 melanoma = tested on: SK-MEL-28 melanoma
HT29 colon = tested on: HT29 colon
SK-MEL-2 melanoma = tested on: SK-MEL-2 melanoma
OVCAR-3 ovarian = tested on: OVCAR-3 ovarian
HL-60(TB) leukemia = tested on: HL-60(TB) leukemia
DLD-1 colon = tested on: DLD-1 colon
NCI-H23 lung = tested on: NCI-H23 lung
UACC-62 melanoma = tested on: UACC-62 melanoma
EKVX NSCLC = tested on: EKVX NSCLC
HOP-62 NSCLC = tested on: HOP-62 NSCLC
CAKI-1 renal = tested on: CAKI-1 renal
MDA-N = tested on: MDA-N
MCF7 breast = tested on: MCF7 breast
BT-549 breast = tested on: BT-549 breast
PC-3 prostate = tested on: PC-3 prostate

CCOP12(OCC)NC(=O)OC1(C(F)(F)F)c1ccccc1O2 (stereo unspecified)
TGI (NCI-H226 lung): > 100 µM
TGI (NCI-H460 lung): > 100 µM
TGI (OVCAR-8 ovarian): > 100 µM
TGI (IGROV1 ovarian): > 100 µM
TGI (MALME-3M melanoma): > 100 µM
TGI (SK-MEL-28 melanoma): > 100 µM
TGI (HT29 colon): > 100 µM
TGI (SK-MEL-2 melanoma): > 100 µM
TGI (OVCAR-3 ovarian): > 100 µM
TGI (HL-60(TB) leukemia): > 100 µM
TGI (DLD-1 colon): > 100 µM
TGI (NCI-H23 lung): > 100 µM
TGI (UACC-62 melanoma): > 100 µM

O=c1c2ccccc2nc2n1-c1ccccc1SC2
TGI (NCI-H460 lung): > 100 µM
TGI (OVCAR-8 ovarian): > 100 µM
TGI (IGROV1 ovarian): > 100 µM
TGI (EKVX NSCLC): > 100 µM
TGI (MALME-3M melanoma): > 100 µM
TGI (HOP-62 NSCLC): > 100 µM
TGI (SK-MEL-28 melanoma): > 100 µM
TGI (HT29 colon): > 100 µM
TGI (SK-MEL-2 melanoma): > 100 µM
TGI (OVCAR-3 ovarian): > 100 µM
TGI (DLD-1 colon): > 100 µM
TGI (CAKI-1 renal): > 100 µM
TGI (NCI-H23 lung): > 100 µM
TGI (UACC-62 melanoma): > 100 µM

C=CCN1COc2c(cc3c4c(cccc24)C(=O)O3)C1
TGI (NCI-H226 lung): > 100 µM
TGI (NCI-H460 lung): > 100 µM
TGI (OVCAR-8 ovarian): > 100 µM
TGI (IGROV1 ovarian): > 100 µM
TGI (EKVX NSCLC): 92 µM
TGI (MALME-3M melanoma): > 10 µM
TGI (HOP-62 NSCLC): > 100 µM
TGI (SK-MEL-28 melanoma): 57.2 µM
TGI (HT29 colon): 51.8 µM
TGI (SK-MEL-2 melanoma): > 100 µM
TGI (OVCAR-3 ovarian): 72.5 µM
TGI (HL-60(TB) leukemia): 50.3 µM
TGI (DLD-1 colon): 66.2 µM
TGI (CAKI-1 renal): 49.3 µM
TGI (NCI-H23 lung): 47 µM
TGI (UACC-62 melanoma): 36.8 µM

NC(=O)c1cccc(N=c2oc3ccc(Br)cc3cc2-c2nc3ccccc3[nH]2)c1
TGI (NCI-H226 lung): 24.2 µM
TGI (NCI-H460 lung): 43.6 µM
TGI (OVCAR-8 ovarian): 28.2 µM
TGI (MDA-N): 38.1 µM
TGI (IGROV1 ovarian): 33.6 µM
TGI (MCF7 breast): 31.9 µM
TGI (EKVX NSCLC): 32.6 µM
TGI (MALME-3M melanoma): 43 µM
TGI (HOP-62 NSCLC): 33.8 µM
TGI (SK-MEL-28 melanoma): > 100 µM
TGI (HT29 colon): 34.7 µM
TGI (SK-MEL-2 melanoma): 38.5 µM
TGI (OVCAR-3 ovarian): 32.1 µM
TGI (HL-60(TB) leukemia): 51.3 µM
TGI (BT-549 breast): 30.4 µM
TGI (CAKI-1 renal): 34.3 µM
TGI (NCI-H23 lung): 32.7 µM
TGI (PC-3 prostate): 29.2 µM
TGI (UACC-62 melanoma): 28.5 µM

O=C(O)c1cc2c(cc1CC(Cc1ccc3c(c1)CCCC3)C(=O)O)CCCC2 (stereo unspecified)
TGI (NCI-H226 lung): > 100 µM
TGI (NCI-H460 lung): > 100 µM
TGI (OVCAR-8 ovarian): > 100 µM
TGI (MDA-N): > 100 µM
TGI (IGROV1 ovarian): > 100 µM
TGI (MCF7 breast): > 100 µM
TGI (EKVX NSCLC): > 100 µM
TGI (MALME-3M melanoma): > 100 µM
TGI (HOP-62 NSCLC): > 100 µM
TGI (SK-MEL-28 melanoma): > 100 µM
TGI (HT29 colon): > 100 µM
TGI (SK-MEL-2 melanoma): > 100 µM
TGI (OVCAR-3 ovarian): > 100 µM
TGI (HL-60(TB) leukemia): > 100 µM
TGI (BT-549 breast): > 100 µM
TGI (CAKI-1 renal): > 100 µM
TGI (NCI-H23 lung): > 100 µM
TGI (PC-3 prostate): > 100 µM
TGI (UACC-62 melanoma): > 100 µM

CN(C)CCCNc1ncnc2c1ncn2C1OC(CO)C(O)C1O (stereo unspecified)
TGI (NCI-H226 lung): > 100 µM
TGI (NCI-H460 lung): > 100 µM
TGI (OVCAR-8 ovarian): > 100 µM
TGI (MDA-N): > 100 µM
TGI (IGROV1 ovarian): > 100 µM
TGI (MCF7 breast): > 100 µM
TGI (EKVX NSCLC): > 100 µM
TGI (MALME-3M melanoma): > 100 µM
TGI (HOP-62 NSCLC): > 100 µM
TGI (SK-MEL-28 melanoma): > 100 µM
TGI (HT29 colon): > 100 µM
TGI (SK-MEL-2 melanoma): > 100 µM
TGI (OVCAR-3 ovarian): > 100 µM
TGI (HL-60(TB) leukemia): > 100 µM
TGI (BT-549 breast): > 100 µM
TGI (CAKI-1 renal): > 100 µM
TGI (NCI-H23 lung): > 100 µM
TGI (PC-3 prostate): > 100 µM
TGI (UACC-62 melanoma): > 100 µM

Cc1ccc(C(c2c(O)c3ccccc3n(-c3ccccc3)c2=O)c2c(O)c3ccccc3n(-c3ccccc3)c2=O)cc1
TGI (NCI-H226 lung): > 100 µM
TGI (EKVX NSCLC): > 100 µM
TGI (MALME-3M melanoma): > 100 µM
TGI (HOP-62 NSCLC): > 100 µM
TGI (SK-MEL-28 melanoma): > 100 µM
TGI (SK-MEL-2 melanoma): > 100 µM
TGI (OVCAR-3 ovarian): > 100 µM
TGI (DLD-1 colon): > 100 µM
TGI (CAKI-1 renal): > 100 µM
TGI (NCI-H23 lung): > 100 µM

N#CC1=C(c2ccccc2)C(=C2Nc3ccccc3N2)C2S/C(=C\c3ccccc3)C(=O)N2C1=N (stereo unspecified)
TGI (NCI-H226 lung): 3.73 µM
TGI (NCI-H460 lung): 10.2 µM
TGI (OVCAR-8 ovarian): 5.19 µM
TGI (IGROV1 ovarian): 4.71 µM
TGI (EKVX NSCLC): 5.2 µM
TGI (MALME-3M melanoma): 4.07 µM
TGI (HOP-62 NSCLC): 5.1 µM
TGI (SK-MEL-28 melanoma): 10.5 µM
TGI (HT29 colon): 14.3 µM
TGI (SK-MEL-2 melanoma): 4.05 µM
TGI (OVCAR-3 ovarian): 3.37 µM
TGI (HL-60(TB) leukemia): 6.53 µM
TGI (DLD-1 colon): 12 µM
TGI (CAKI-1 renal): 4.01 µM
TGI (NCI-H23 lung): 4.49 µM
TGI (UACC-62 melanoma): 4.76 µM

O=C(SC1=NCCN1)c1cccc2ccccc12
TGI (NCI-H226 lung): > 100 µM
TGI (NCI-H460 lung): > 100 µM
TGI (OVCAR-8 ovarian): > 100 µM
TGI (MDA-N): > 100 µM
TGI (IGROV1 ovarian): > 100 µM
TGI (MCF7 breast): > 100 µM
TGI (EKVX NSCLC): > 100 µM
TGI (MALME-3M melanoma): > 100 µM
TGI (HOP-62 NSCLC): > 100 µM
TGI (SK-MEL-28 melanoma): > 100 µM
TGI (HT29 colon): > 100 µM
TGI (SK-MEL-2 melanoma): > 100 µM
TGI (OVCAR-3 ovarian): > 100 µM
TGI (HL-60(TB) leukemia): 67 µM
TGI (BT-549 breast): > 100 µM
TGI (CAKI-1 renal): > 100 µM
TGI (NCI-H23 lung): > 100 µM
TGI (PC-3 prostate): > 100 µM
TGI (UACC-62 melanoma): > 100 µM

COC(=O)C1=COC(OC2OC(CO)C(O)C(O)C2O)C2C3CN4CCc5c([nH]c6ccccc56)C4(CC12)O3 (stereo unspecified)
TGI (NCI-H226 lung): > 100 µM
TGI (NCI-H460 lung): > 100 µM
TGI (OVCAR-8 ovarian): > 100 µM
TGI (MDA-N): > 100 µM
TGI (IGROV1 ovarian): > 100 µM
TGI (MCF7 breast): > 100 µM
TGI (EKVX NSCLC): > 100 µM
TGI (MALME-3M melanoma): > 100 µM
TGI (HOP-62 NSCLC): > 100 µM
TGI (SK-MEL-28 melanoma): > 100 µM
TGI (HT29 colon): > 100 µM
TGI (SK-MEL-2 melanoma): > 100 µM
TGI (OVCAR-3 ovarian): > 100 µM
TGI (HL-60(TB) leukemia): > 100 µM
TGI (BT-549 breast): > 100 µM
TGI (CAKI-1 renal): > 100 µM
TGI (NCI-H23 lung): > 100 µM
TGI (PC-3 prostate): > 100 µM
TGI (UACC-62 melanoma): > 100 µM

CCOC(=O)CCSc1nc2ccc(I)cc2c(=O)n1Cc1ccccc1
TGI (NCI-H226 lung): > 100 µM
TGI (NCI-H460 lung): > 100 µM
TGI (OVCAR-8 ovarian): > 100 µM
TGI (MDA-N): > 86.7 µM
TGI (IGROV1 ovarian): > 100 µM
TGI (MCF7 breast): > 100 µM
TGI (EKVX NSCLC): 82.4 µM
TGI (MALME-3M melanoma): 48.4 µM
TGI (HOP-62 NSCLC): > 75.2 µM
TGI (SK-MEL-28 melanoma): > 100 µM
TGI (HT29 colon): > 100 µM
TGI (SK-MEL-2 melanoma): > 100 µM
TGI (OVCAR-3 ovarian): > 84.5 µM
TGI (HL-60(TB) leukemia): > 73.7 µM
TGI (BT-549 breast): > 94.4 µM
TGI (CAKI-1 renal): 9.59 µM
TGI (NCI-H23 lung): > 64.4 µM
TGI (PC-3 prostate): > 100 µM
TGI (UACC-62 melanoma): > 93.5 µM

COc1ccc(C2=C(N)c3c(Cl)cccc3C2=O)cc1
TGI (NCI-H226 lung): > 100 µM
TGI (NCI-H460 lung): > 100 µM
TGI (OVCAR-8 ovarian): > 100 µM
TGI (MDA-N): > 100 µM
TGI (IGROV1 ovarian): > 100 µM
TGI (MCF7 breast): > 100 µM
TGI (EKVX NSCLC): > 100 µM
TGI (MALME-3M melanoma): > 100 µM
TGI (HOP-62 NSCLC): > 100 µM
TGI (SK-MEL-28 melanoma): > 100 µM
TGI (HT29 colon): > 100 µM
TGI (SK-MEL-2 melanoma): > 100 µM
TGI (OVCAR-3 ovarian): > 100 µM
TGI (HL-60(TB) leukemia): > 100 µM
TGI (BT-549 breast): > 100 µM
TGI (CAKI-1 renal): > 100 µM
TGI (NCI-H23 lung): > 100 µM
TGI (PC-3 prostate): > 100 µM
TGI (UACC-62 melanoma): > 100 µM

CN(C)CCCNC(=O)CCNC(=O)c1cc(NC(=O)c2cc(NC(=O)c3cc(NC(=O)c4nccn4C)cn3C)cn2C)cn1C
TGI (NCI-H226 lung): > 100 µM
TGI (NCI-H460 lung): > 100 µM
TGI (OVCAR-8 ovarian): > 100 µM
TGI (MDA-N): > 100 µM
TGI (IGROV1 ovarian): > 100 µM
TGI (MCF7 breast): > 100 µM
TGI (EKVX NSCLC): > 100 µM
TGI (MALME-3M melanoma): > 100 µM
TGI (HOP-62 NSCLC): > 100 µM
TGI (SK-MEL-28 melanoma): > 100 µM
TGI (HT29 colon): > 100 µM
TGI (SK-MEL-2 melanoma): > 100 µM
TGI (OVCAR-3 ovarian): > 100 µM
TGI (HL-60(TB) leukemia): > 100 µM
TGI (BT-549 breast): > 100 µM
TGI (CAKI-1 renal): > 100 µM
TGI (NCI-H23 lung): > 100 µM
TGI (PC-3 prostate): > 100 µM
TGI (UACC-62 melanoma): > 100 µM
